Reference: patent US20260174692A1, “AEROSOL COMPOSITION” (UPyTher B.V., priority 2023, published 2026)

Columns and labels:
[1] = cited from earlier work
[2] = In vitro release of TLR-agonists from hydrogel; assay type: physicochemical; conditions: 6 and 10 wt. % hydrogel formulations; ammonium carbonate buffer
Method: The TLR-agonist resiquimod (synonym R848) was loaded from a stock solution (50 mM in DMSO) to 1.27 mM in the hydrogel. The TLR-agonist telratolimod (synonym MEDI9197) was loaded from a stock solution (10 mM in DMSO) to 0.5 mM in the hydrogel.
The drug loaded solution (100 μL) was transferred to a Millicell insert, which was placed in a 24-wells plate filled with PBS pH 7.4 (700 μL). At set time points the PBS was refreshed and the removed PBS was analyzed for R848 content UV absorbance at 320 nm. For MEDI9197, PBS was substituted for a volatile ammonium carbonate buffer and a HPLC-MS method was used. Release experiments were performed with n=3.

[3] = In vitro release of ipilimumab from hydrogel; assay type: physicochemical; conditions: 10 wt % UPy-PEG10k hydrogel; PBS pH 7.4
Method: The monoclonal antibody ipilimumab was loaded from a stock solution ([…] in PBS) to 3 μg/μl in the hydrogel. The drug loaded solution (50 μL) was transferred to 96-wells filter plate filled with PBS pH 7.4 (250 μL). At set time points the PBS was refreshed and the removed PBS was analyzed for antibody content with a Fortebio Octet interferometer.

## O=C1[O][Pt]2([NH][C@@H]3CCCC[C@H]3[NH]2)[O]C1=O [oxaliplatin]
[1]; administered by ePIPAC
  Cmax, ePIPAC: 2670 to 3280 ng/mL
[1]; after systemic chemotherapy
  AUCmax, systemic: 51400 to 118000 ng·h/mL
  Cmax, systemic: 1610 to 1920 ng/mL

## CCCCCCCCCCCCCCCCCC(=O)NCCCCOn1c(CCCC)nc2c(N)nc3ccccc3c21 [MEDI9197, telratolimod]
[2]
  release rate from hydrogel: released slower than MMC

## ipilimumab: monoclonal antibody, checkpoint inhibitor (CTLA-4), loaded to 3 μg/μl in the hydrogel
[3]
  duration of antibody release: released for multiple weeks
